Measured values as given in patent US8629242B2, “Methods of inhibiting calcineurin with ApoE analogs” (Cognosci, Inc., priority 2007, dated 2014).
Read-outs that look alike come from different tables or passages of the source. Where a SMILES comes first, the peptide text is derived from it. [ ]: non-standard residue; d: D form. Aib = CC(C)(N)C(=O)O

Columns and labels:
[1] = test system: peritoneal macrophages isolated from EAE mice; test: In vitro effect on LPS+IFN-γ-induced inflammatory mediators in macrophages from saline-treated EAE mice; type: cell-based; settings: for inhibition of NO release: 72 hours after LPS+IFN-γ; for NOS2 expression (real-time PCR): normalized to 18S rRNA, fold change vs control
Procedure: FIG. 5. In vitro effects of COG compounds on LPS and IFN-γ-induced production of inflammatory mediators in cultured peritoneal macrophages isolated from EAE mice. Conditioned medium with or without COG 133 or COG 112 was collected 45 hours after immunogen exposure for analysis of TNF-α (A) and IL-6 (B), or 72 hours after inflammatory stimulation for measurement of nitrite (C). Level of NOS2 expression was assessed by quantitative real-time PCR (D). NOS2 expression was first normalized by the endogenous control (18S rRNA) and then expressed as fold change compared to control group. Statistical analysis was performed by ANOVA and significance was shown as *(p<0.05) and **(p<0.001).
We then examined the ability of COG 112 (SEQ ID NO: 5) and COG 133 (SEQ ID NO: 1) to inhibit the in vitro release of NO, TNF-α and IL-6 using macrophages obtained from saline-treated EAE mice on dpi 35. Conditioned medium with or without COG 133 or COG 112 was collected 45 hours after immunogen (LPS+IFN-γ) exposure for analysis of TNF-α and IL-6, or 72 hours after stimulation for measurement of nitrite. […] Levels of NOS2 expression were quantified by real-time PCR. NOS2 expression was first normalized by the endogenous control (18S rRNA) and then expressed as fold change compared to control group.

[2] = test system: PLP-induced relapsing-remitting experimental autoimmune encephalomyelitis (EAE) model; test: PLP-induced relapsing-remitting EAE model; type: in vivo; parameters: CSmax during relapse (mean ± SEM) / Area under curve (mean ± SEM): scale not given here; settings: 4 mg/kg s.c.; for Area under curve (mean ± SEM): clinical score vs days post-inoculation, out to 60 days; for CSmax during relapse (mean ± SEM): maximal clinical score during relapse; for Relapse Rate: number of animals experiencing a relapse
Procedure: To further compare the activity of the various ApoE analogs, the efficacy of the analogs was assessed in a PLP-induced relapsing-remitting experimental autoimmune encephalomyelitis (EAE) model. […] The second dose was administered the next day followed by three times a week (M, W, F). Relapse rate represents the number of animals experiencing a relapse, while the CSmax indicates the maximal clinical score during relapse. Area under curve represents the area under the curve in a plot of clinical score vs. days post-inoculation (out to 60 days). […] The improvement in relapse rate and clinical score in the EAE model by ApoE analog treatment may be due, in part, to the remyelination-promoting effect of the ApoE analogs.

Maximum tolerated dose = type: in vivo; settings: for MTD: in vivo
Source text: To fully evaluate the use of ApoE analogs as therapeutic compounds, the margin of safety should also be determined. Towards that end, we determined the maximum tolerated dose of COG 112, COG 248, and COG 345 when administered by intravenous and subcutaneous injection.

[3] = test system: animal model of human diseases; test: Minimum effective dose in animal models; type: in vivo
cerebellar slices = test: Lysolecithin-induced demyelination in organotypic cerebellar slice culture; type: cell-based, rat
Procedure: FIG. 7. COG 112 promotes remyelination in a lysolecithin-induced demyelination model in cerebellum slice culture. Cerebellum slices from postnatal day 10 rat pups were cultured for 7 days. Lysolecithin was added to a final concentration of 0.5 mg/ml and then removed after incubation overnight (15˜17 hr). 1 μM COG 112 was added to the slice and cultured for 5 days. The cerebellar slices were either immunohistologically stained with MBP; or collected and lysed for western blotting with myelin marker MBP. (A) naïve slice; (B) 2 days after lysolecithin treatment; (C) day 7 after lysolecithin treatment; (D) day 7 after lysolecithin treatment with COG 112 added on day 3; (E) Western blot of cerebellar lysates probed for MBP; (F) Densitometry analysis of blots probed for MBP. The density of each MBP band was normalized to density of β-actin band. One-way ANOVA was used for statistical analysis. n=4
FIG. 8. COG 112 prevents lysolecithin-induced cell death of oligodendrocytes in cerebellum slice culture. Cerebellum slices from postnatal day 10 rat pups were cultured for 7 days. Lysolecithin was added to a final concentration of 0.5 mg/ml with and without COG 112 (1 μM). After incubation overnight (16 hr), medium was replaced with fresh lysolecithin-free medium, but still containing COG 112 for the COG 112 treatment group. After two days, the cerebellar slices were collected and lysed for western blotting with myelin marker MBP (left panel) and oligodendrocyte marker CNPase (right panel). The density of each MBP or CNPase band was normalized to the density of the β-actin band. One-way ANOVA was used for statistical analysis. n=4, * p<0.01.
FIG. 19. COG 345 promotes remyelination in lysolecithin-induced demyelination model of cerebellum slices. Significant demyelination was induced by lysolecithin (0.5 mg/ml) in cerebellar slices. COG 112 or COG 345 (1 μM) was added on day 3 when full demyelination was achieved. 4 days later, the slices were fixed and double stained with myelin marker MBP (green) and Purkinje cell marker calbindin (red). (A) Untreated-slices; (B) lysolecithin-treated slices; (C) COG 112-treated slices after lysolecithin exposure; (D) COG 345-treated slices after lysolecithin exposure. E-F. ApoE analogs protect OPCs from LPS-induced cell death in OPC/microglia mixed culture. OPCs and microglia derived from brain culture of P2 rat pups were plated in 96-well plates in 1:1 ratio. LPS (10 ng/ml) together with 1 μM of the indicated ApoE analogs was added to the cultures. After 24 hours, OPC cell death was quantified by LDH assay (E) and MTT assay (F). Statistical analysis was conducted by one-way ANOVA followed by Dunnett comparison vs. LPS group. * P<0.01, ** P<0.001, n=3.
The effect of COG peptides (i.e. ApoE analogs) on remyelination in a second model of demyelination was examined. For this series of experiments, a lysolecithin-induced in vitro demyelination model in an organotypic cerebellar slice culture was used. Parasagittal slices of postnatal Day 10 (P10) rat cerebellum were cut at 400 μm using a Tissue Slicer (SD Instruments, Grants Pass, Oreg.). After culture in conditioned medium for 7 days in vitro (DIV), fresh medium with lysolecithin (0.5 mg/ml) was added to the slice and incubated overnight (15-17 hours) at 37° C. The lysolecithin-containing medium was then replaced with fresh medium without lysolecithin. On day 3, COG 112 (1 μM) was added to the slice with fresh medium. After incubation for 5 days, the cerebellar slices were either immunohistologically stained for myelin basic protein (MBP), a myelin marker, (FIG. 7A-D) or lysed for western blotting and subsequent probing for MBP (FIGS. 7E and F). […] Similar results were obtained from the Western blot analysis of lysates of the cerebellar slices (FIGS. 7E and F). […] In addition, the blots of cerebellar slice lysate were also probed for oligodendrocyte (OL) marker 2′,3′-Cyclic Nucleotide 3′-Phosphodiesterase (CNPase). […]

[4] = sc, subcutaneous injection, read-out: Maximum Tolerated Dose Subcutaneous
[5] = intravenous injection, read-out: Maximum Tolerated Dose Intravenous
[6] = 45 hours after LPS+IFN-γ, dose-dependent suppression
[7] = 1 μM added on day 3 after lysolecithin, 5 days
[8] = 1 μM added together with lysolecithin, 2 days after

Row | Compound | inhibition of NO release ([1]; 5 μM) | NOS2 expression (real-time PCR) [1] | Area under curve (mean ± SEM) [2] | CSmax during relapse (mean ± SEM) [2] | Relapse Rate [2] | MTD (Maximum tolerated dose; [4]) [mg/kg] | MTD (Maximum tolerated dose; [5]) [mg/kg] | further results
1 | CC(=O)N[C@@H](CC(C)C)C(=O)N[C@@H](CCCNC(=N)N)C(=O)N[C@H](C(=O)N[C@@H](CCCNC(=N)N)C(=O)N[C@@H](CC(C)C)C(=O)N[C@@H](C)C(=O)N[C@@H](CO)C(=O)N[C@@H](Cc1c[nH]cn1)C(=O)N[C@@H](CC(C)C)C(=O)N[C@@H](CCCNC(=N)N)C(=O)N[C@@H](CCCCN)C(=O)N[C@@H](CC(C)C)C(=O)N[C@@H](CCCNC(=N)N)C(=O)N[C@@H](CCCCN)C(=O)N[C@@H](CCCNC(=N)N)C(=O)N[C@@H](CC(C)C)C(=O)N[C@@H](CC(C)C)C(N)=O)C(C)C [COG 133] | about 37% | affect NOS2 expression | 25.3 ± 8.3 | 3.2 ± 0.7 | 7/14 | > 100 | 16 | suppression of IL-6 ([1]; 5 μM, 45 hours after LPS+IFN-γ): only moderate, yet statistically significant, suppression; suppression of TNF-α ([1]; 5 μM, 45 hours after LPS+IFN-γ): only moderate, yet statistically significant, suppression; Minimum Effective Dose (model) ([3]; models: CIA, EAE): 1 mg/kg (CIA, EAE)
2 | CC(=O)NC(=N)NCCC[C@H](NC(=O)[C@H](CCCCN)NC(=O)[C@H](CCCNC(=N)N)NC(=O)[C@H](CC(C)C)NC(=O)[C@H](CCCCN)NC(=O)[C@H](CCCNC(=N)N)NC(=O)[C@H](CC(C)C)NC(=O)C(C)(C)NC(=O)[C@H](CO)NC(=O)[C@H](C)NC(=O)[C@H](CC(C)C)NC(=O)[C@H](CCCNC(=N)N)NC(=O)[C@@H](NC(=O)[C@H](CCCNC(=N)N)NC(=O)[C@H](CC(C)C)NC(C)=O)C(C)C)C(=O)N[C@@H](CC(C)C)C(=O)N[C@@H](CC(C)C)C(N)=O [COG 345, acetyl-LRVRLAS-Aib-LRKLRK(acetyl-Arg)LL-amide] (Ac-LRVRLAS[Aib]LRKLRKR(Ac)LL-NH2) |  |  | 15.5 ± 2.5 | 1.4 ± 0.2 | 4/15 | > 150 | 20 to 25 | myelination (MBP/calbindin double staining) (cerebellar slices; 1 μM added three days after lysolecithin, 4 days): dramatically restored myelination; improvement in relapse rate and maximum clinical score during relapse [2]: significant improvement; safety profile by intravenous injection (Maximum tolerated dose; compared to the other analogs on a molar basis): superior safety profile; Minimum Effective Dose (model) ([3]; model: EAE): 1 mg/kg (EAE)
3 | Ac-RQIKIWFQNRRMKWKKCLRVRLASHLRKLRKRLL-NH2 [COG 112] | completely inhibited | more potent effect than COG 133 | 16.7 ± 3.6 | 2.4 ± 0.8 | 5/14 | > 100 | 28 | concentration giving complete inhibition of IL-6 levels [1, 6]: about 5 μM; concentration giving complete inhibition of TNF-α levels [1, 6]: about 5 μM; MBP levels (Western blot) (cerebellar slices; [7]): increased MBP levels; level of MBP protein (immunostaining) (cerebellar slices; [7]): robustly elevated; prevention of lysolecithin-induced demyelination (MBP Western blot) (cerebellar slices; [8]): did not prevent lysolecithin-induced demyelination; prevention of oligodendrocyte cell death (CNPase Western blot) (cerebellar slices; [8]): did prevent oligodendrocyte cell death; level of CNPase (Western blot) (cerebellar slices; 1 μM post-treatment, data not shown): significantly increased; Minimum Effective Dose (model) ([3]; models: EAE, TBI): 1 mg/kg (EAE, TBI)
